Reference: PubChem BioAssay (NCI)
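GI50 is the concentration that inhibits growth by half. The concentration for full growth arrest is given as TGI.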

Tests used:
Assay in all cases: NCI-60 cell line screen, 384-well format
[1] = tested on: SR leukemia
[2] = tested on: SF-539 CNS
[3] = tested on: A498 renal
[4] = tested on: U251 glioblastoma
[5] = tested on: HCC-2998 colon
[6] = tested on: SN12C renal
[7] = tested on: TK-10 renal
[8] = tested on: K-562 leukemia
[9] = tested on: HCT-15 colon
[10] = tested on: SNB-19 CNS
[11] = tested on: CAKI-1 renal
[12] = tested on: HL-60(TB) leukemia
[13] = tested on: OVCAR-3 ovarian

NC1(c2ccc(-c3nc4ccn5c(=O)[nH]nc5c4cc3-c3ccccc3)cc2)CCC1
GI50 [1]: 1140 nM | TGI [1]: 2360 nM | GI50 [2]: 815 nM | TGI [2]: 2080 nM | GI50 [3]: 134 nM | TGI [3]: 1190 nM | GI50 [4]: 1860 nM | TGI [4]: 4530 nM | GI50 [5]: 1390 nM | TGI [5]: 2780 nM | GI50 [6]: 4040 nM | TGI [6]: 16300 nM | GI50 [7]: 1340 nM | TGI [7]: 3900 nM | GI50 [8]: 1590 nM | TGI [8]: 3030 nM | GI50 [9]: 1400 nM | TGI [9]: 2780 nM | GI50 [10]: 2550 nM | TGI [10]: 7450 nM | GI50 [11]: 883 nM | TGI [11]: 2600 nM | GI50 [12]: 1920 nM | TGI [12]: 3360 nM | GI50 [13]: 859 nM | TGI [13]: 4780 nM
